Reference: US7569711B2, “Enone cancer therapeutics” (Cornell Univeristy, priority 2002, dated 2009)
Like-named read-outs stand apart in the source and are kept apart here. Blank lines part the entries; values can stand above or below the compound they belong to.

Tests used:
human erythrocyte GlxI [1] = biological target: T1, human erythrocyte GlxI (Homo sapiens, UniProt Q04760); assay: kinetic studies with human erythrocyte GlxI (competitive inhibition); format: biochemical; conditions: sodium phosphate buffer, pH 7.0, 25° C., read-out: dissociation constant Ki
T1 construct: Kinetic studies with human erythrocyte GlxI; from tissue; host or cells: human erythrocytes
T1 sequence (Q04760 2-184 limits assumed): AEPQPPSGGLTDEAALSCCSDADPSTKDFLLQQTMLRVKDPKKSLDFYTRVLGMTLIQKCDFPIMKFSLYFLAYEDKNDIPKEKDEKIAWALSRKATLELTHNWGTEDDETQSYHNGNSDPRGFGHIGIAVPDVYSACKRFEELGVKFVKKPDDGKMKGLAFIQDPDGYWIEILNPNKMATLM
Procedure: In each kinetic run, the concentration of free GSH was maintained at 0.2 mM by varying the total concentration of GSH and methylglyoxal on the basis of the dissociation constant of the hemithioacetal (Kdiss=2.2 mM). Conditions: 50 mM phosphate buffer, pH 7.0, 25° C.
To investigate the mechanism of formation of 2b, the nonenzymatic reaction of 1b with GSH was monitored spectrophotometrically, and followed a simple first-order decay (FIG. 2, trace A). No intermediate species was detectable. However, in the presence of human placental glutathione transferase (GSTP 1-1) (Predominantly the pi or P1-1 isoform, purchased from Sigma Chemical Company. Salts and free GSH were removed by ultrafiltration. Units of transferase activity were determined using 1-chloro-2,4-dinitrobenzene as substrate (Mannervik, B.; Danielson, U. H. CRC Critical Reviews in Biochemistry 1988, 23, 283-337). The reaction rate profile conformed to a double exponential decay, composed of a rapid, enzyme-dependent, initial phase involving 1b followed by a slower enzyme-independent first-order phase (FIG. 2, traces B and C).

hGSTP1-1 = biological target: T2, hGSTP1-1 (Homo sapiens, UniProt P09211); assay: initial rates of reaction with hGSTP1-1 (substrate kinetics); format: biochemical; conditions: pH 6.5, [GSH]=1 mM, 25° C.; estimated
T2 construct: purchased Sigma Chemical Company; host or cells: human placenta
T2 sequence (P09211 2-210 limits assumed): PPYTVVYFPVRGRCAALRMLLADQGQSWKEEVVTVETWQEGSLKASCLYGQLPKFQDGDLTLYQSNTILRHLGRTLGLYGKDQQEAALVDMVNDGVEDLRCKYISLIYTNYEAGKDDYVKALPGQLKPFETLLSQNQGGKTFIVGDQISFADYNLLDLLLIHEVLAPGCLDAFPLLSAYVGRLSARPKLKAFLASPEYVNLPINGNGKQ
Procedure: Initial rates of reaction of 1a and 1b with hGSTP1-1 were determined from reciprocal plots of initial velocities (ΔOD235/min), versus [substrate] in buffered solution at pH 6.5, with [GSH]=1 mM (25° C.). Under those conditions, the enzyme-catalyzed GSH addition became rate determining (<0.01 units of transferase in the assay cuvettes).

[2] = tested on: murine and human tumors in culture; conditions: range of different murine and human tumors in culture; read-out: IC50 antitumor activity; cited from earlier work
human erythrocyte GlxI [3] = biological target: T1, human erythrocyte GlxI; conditions: competitive; previously reported; read-out: dissociation constant Ki; cited from earlier work

- Ki (human erythrocyte GlxI [1]): 107 ± 0.1 µM
SMILES: N[C@@H](CCC(=O)N[C@@H](CSCC1=CCCCC1=O)C(=O)NCC(=O)O)C(=O)O [Compound 2b]

- kcat/Km, fold lower than that of 1b (hGSTP1-1): ~8.3 fold
SMILES: C/C=C/C(=O)OCC1=C[C@@H](O)[C@@H](O)[C@@H](O)C1=O [Compound 1a, 2-crotonyloxymethyl-(4R, 5R, 6R)-4,5,6-trihydroxy-2-cyclohexenone]
- IC50 [2]: 3 to 44 µM

SMILES: NC(CCC(=O)NC(CSCC1=CC(O)C(O)C(O)C1=O)C(=O)NCC(=O)O)C(=O)O (stereo not shown) [Compound 2a]
- Ki (human erythrocyte GlxI [3]): 183 ± 6 µM
